The text below walks through data of BindingDB's records for doi:10.1124/jpet.108.143271 (Bristol-Myers Squibb, 2008).

The structures appear in SMILES notation. Changes are numbered by the printed parent chain.

Experiment [1] addresses T1, Peroxisome proliferator-activated receptor alpha (Rattus norvegicus, UniProt P37230).
T1 sequence (P37230 whole entry): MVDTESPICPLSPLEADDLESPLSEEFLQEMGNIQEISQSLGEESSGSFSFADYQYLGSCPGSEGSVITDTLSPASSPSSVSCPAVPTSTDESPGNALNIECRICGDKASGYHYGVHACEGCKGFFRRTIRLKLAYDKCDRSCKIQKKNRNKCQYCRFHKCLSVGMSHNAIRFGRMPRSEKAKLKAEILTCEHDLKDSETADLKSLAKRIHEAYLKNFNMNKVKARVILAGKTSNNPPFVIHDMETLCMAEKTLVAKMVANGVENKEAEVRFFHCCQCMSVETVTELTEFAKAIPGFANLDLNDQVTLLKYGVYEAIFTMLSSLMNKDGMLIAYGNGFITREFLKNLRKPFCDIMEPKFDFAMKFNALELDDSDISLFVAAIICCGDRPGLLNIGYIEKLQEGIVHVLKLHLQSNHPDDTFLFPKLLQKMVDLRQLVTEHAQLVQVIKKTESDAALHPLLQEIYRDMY

Experiment [2] has as its target T2, Peroxisome proliferator-activated receptor alpha (Mesocricetus auratus, UniProt Q7TNH1).
T2 sequence (Q7TNH1 whole entry): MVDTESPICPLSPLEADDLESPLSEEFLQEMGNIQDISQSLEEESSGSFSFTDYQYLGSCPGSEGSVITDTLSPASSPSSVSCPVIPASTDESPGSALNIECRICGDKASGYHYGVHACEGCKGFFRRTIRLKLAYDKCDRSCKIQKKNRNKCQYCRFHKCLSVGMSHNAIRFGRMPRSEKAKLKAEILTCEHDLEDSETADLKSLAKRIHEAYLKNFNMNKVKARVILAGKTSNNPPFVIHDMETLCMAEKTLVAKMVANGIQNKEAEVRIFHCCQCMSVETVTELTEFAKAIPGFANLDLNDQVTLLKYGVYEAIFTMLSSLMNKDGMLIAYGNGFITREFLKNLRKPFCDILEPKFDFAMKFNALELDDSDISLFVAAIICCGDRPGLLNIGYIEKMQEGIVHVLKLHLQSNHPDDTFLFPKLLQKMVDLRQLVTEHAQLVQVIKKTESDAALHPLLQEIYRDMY

Experiment [3] has as its target T3, Peroxisome proliferator-activated receptor alpha (Mus musculus, UniProt P23204).
T3 sequence (P23204 whole entry): T1 sequence (P37230 whole entry) with L41I, S50G, A85V, V86I, T88A, N96S, A135V, A207G, N265D

The target in experiment [4] is T4, Peroxisome proliferator-activated receptor delta (Homo sapiens, UniProt Q03181).
T4 sequence (Q03181 whole entry): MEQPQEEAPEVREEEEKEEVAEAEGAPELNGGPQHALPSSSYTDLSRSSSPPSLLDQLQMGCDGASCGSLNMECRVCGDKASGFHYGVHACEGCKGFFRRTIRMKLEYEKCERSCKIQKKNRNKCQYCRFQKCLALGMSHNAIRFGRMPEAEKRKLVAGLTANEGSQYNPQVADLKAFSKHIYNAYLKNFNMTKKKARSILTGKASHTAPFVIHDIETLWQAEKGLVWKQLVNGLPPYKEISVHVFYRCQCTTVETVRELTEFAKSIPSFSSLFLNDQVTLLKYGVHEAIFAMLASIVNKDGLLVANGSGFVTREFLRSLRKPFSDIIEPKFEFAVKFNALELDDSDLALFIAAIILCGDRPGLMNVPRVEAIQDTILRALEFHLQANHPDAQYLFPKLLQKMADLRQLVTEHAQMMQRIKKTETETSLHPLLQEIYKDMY

Experiment [5] has as its target T5, Peroxisome proliferator-activated receptor alpha (Homo sapiens, UniProt Q07869).
T5 sequence (Q07869 whole entry): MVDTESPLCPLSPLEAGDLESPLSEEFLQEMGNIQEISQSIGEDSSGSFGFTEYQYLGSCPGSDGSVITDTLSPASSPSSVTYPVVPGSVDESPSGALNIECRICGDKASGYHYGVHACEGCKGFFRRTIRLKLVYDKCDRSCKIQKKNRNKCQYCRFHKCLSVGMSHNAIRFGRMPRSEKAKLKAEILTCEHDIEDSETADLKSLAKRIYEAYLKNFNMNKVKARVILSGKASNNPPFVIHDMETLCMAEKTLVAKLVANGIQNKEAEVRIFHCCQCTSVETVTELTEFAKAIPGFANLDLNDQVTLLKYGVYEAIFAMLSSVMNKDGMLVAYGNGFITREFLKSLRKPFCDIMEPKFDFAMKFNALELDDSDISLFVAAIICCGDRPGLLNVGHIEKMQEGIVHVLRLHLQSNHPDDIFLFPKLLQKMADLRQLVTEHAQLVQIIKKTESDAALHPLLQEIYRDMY
Description: PPAR alpha Fluorescence Polarization Assay. As to conditions: pH 8; 22 °C.

In experiment [6] the target is T6, Peroxisome proliferator-activated receptor gamma (Homo sapiens, UniProt P37231).
T6 sequence (P37231 whole entry): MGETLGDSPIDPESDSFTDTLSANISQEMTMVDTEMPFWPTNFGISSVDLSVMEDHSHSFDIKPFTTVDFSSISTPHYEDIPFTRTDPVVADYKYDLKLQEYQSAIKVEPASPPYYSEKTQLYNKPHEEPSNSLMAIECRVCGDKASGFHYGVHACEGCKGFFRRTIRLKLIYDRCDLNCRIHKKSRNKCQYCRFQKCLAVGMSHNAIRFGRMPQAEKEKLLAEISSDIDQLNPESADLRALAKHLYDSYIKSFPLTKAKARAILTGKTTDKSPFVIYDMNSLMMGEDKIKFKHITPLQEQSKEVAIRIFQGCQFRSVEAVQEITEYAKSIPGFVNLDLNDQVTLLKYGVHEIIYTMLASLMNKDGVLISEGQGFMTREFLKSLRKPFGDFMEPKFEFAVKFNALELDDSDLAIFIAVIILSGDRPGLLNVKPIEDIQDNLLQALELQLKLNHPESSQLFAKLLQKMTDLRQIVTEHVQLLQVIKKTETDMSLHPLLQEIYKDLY
Briefly: PPAR gamma Fluorescence Polarization Assay. As to conditions: pH 8; 22 °C. (Polarisation of emitted light reports the rotation of a fluorescent probe.)

Consider `COC(=O)N(CC(=O)O)Cc1cccc(OCc2nc(-c3ccc(Cl)cc3)oc2C)c1` [2-{[(3-{[2-(4-chlorophenyl)-5-methyl-1,3-oxazol-4-yl]methoxy}phenyl)methyl](methoxycarbonyl)amino}acetic acid], for which, in experiment [1], the EC50 (usually the concentration giving half of the maximal effect) was 0.317 µM.
`COC(=O)N(CC(=O)O)Cc1cc(OCc2nc(-c3ccc(Cl)cc3)oc2C)ccc1F` [2-{[(5-{[2-(4-chlorophenyl)-5-methyl-1,3-oxazol-4-yl]methoxy}-2-fluorophenyl)methyl](methoxycarbonyl)amino}acetic acid]: the EC50 in experiment [2] was 0.178 µM; in experiment [3], 0.145 µM; in experiment [4], above 25 µM; in experiment [1], 0.123 µM. Also, the half-inhibitory concentration (IC50) (as a rule, the concentration that gives 50% inhibition) in experiment [5] was 0.097 µM; in experiment [6] it was above 15 µM.
Take `CC(Oc1ccc(Oc2ccc(Cl)cc2)cc1)C(=O)O` (configuration not stated) [Clofop]: the EC50 in experiment [2] stood at 28.7 µM; in experiment [3], 18.5 µM; in experiment [1], 17.7 µM; in experiment [5], 11.6 µM. In addition, in experiment [5], the half-maximal inhibitory concentration (IC50) was above 98.4 µM.
